Tested on: MV-4-11 cells
Test: Gene expression microarray analysis (Affymetrix PrimeView) and GSEA
Type: cell-based, human
Set-up: RFU PODN (11730768_x_at) / Fold change /veh PODN (11730768_x_at) / RFU LINC00158 (11744669_a_at) / Fold change /veh LINC00158 (11744669_a_at) / RFU DUSP10 (11751237_a_at) / Fold change /veh DUSP10 (11751237_a_at) / RFU ID3 (11757404_x_at) / Fold change /veh ID3 (11757404_x_at) / RFU PLEKHG5 (11737974_s_at) / Fold change /veh PLEKHG5 (11737974_s_at) / RFU LRRC4B (11730491_at) / Fold change /veh LRRC4B (11730491_at) / RFU GIMAP4 (11747438_a_at) / Fold change /veh GIMAP4 (11747438_a_at) / RFU KRT8 (11758183_x_at) / Fold change /veh KRT8 (11758183_x_at) / RFU CNN1 (11734310_a_at) / Fold change /veh CNN1 (11734310_a_at) / RFU VPS37D (11726825_at) / Fold change /veh VPS37D (11726825_at) / RFU C10orf10 (11716522_x_at) / Fold change /veh C10orf10 (11716522_x_at) / RFU KIR2DL2 /// KIR2DL4 /// KIR2DL5A /// KIR2DL5B /// KIR2DS1 /// KIR2DS2 /// KIR2DS3 /// KIR2DS4 /// KIR3DL3 /// KIR3DL3 /// KIR3DS1 (11738374_at) / Fold change /veh KIR2DL2 /// KIR2DL4 /// KIR2DL5A /// KIR2DL5B /// KIR2DS1 /// KIR2DS2 /// KIR2DS3 /// KIR2DS4 /// KIR3DL3 /// KIR3DL3 /// KIR3DS1 (11738374_at) / RFU C1QL1 (11718748_at) / Fold change /veh C1QL1 (11718748_at) / RFU TMPRSS4 (11747572_a_at) / Fold change /veh TMPRSS4 (11747572_a_at) / RFU HAMP (11756126_x_at) / Fold change /veh HAMP (11756126_x_at) / RFU RNFT2 (11725882_a_at) / Fold change /veh RNFT2 (11725882_a_at) / RFU NR4A2 (11747474_a_at) / Fold change /veh NR4A2 (11747474_a_at) / RFU ABCC12 (11746883_a_at) / Fold change /veh ABCC12 (11746883_a_at) / RFU TMEM136 (11760407_x_at) / Fold change /veh TMEM136 (11760407_x_at) / RFU CLDN22 /// WWC2 (11732394_at) / Fold change /veh CLDN22 /// WWC2 (11732394_at) / RFU HLA-DPB1 (11760878_x_at) / Fold change /veh HLA-DPB1 (11760878_x_at) / RFU SPINT1 (11716480_a_at) / Fold change /veh SPINT1 (11716480_a_at) / RFU GAP43 (11754022_s_at) / Fold change /veh GAP43 (11754022_s_at) / RFU A4GNT (11735810_at) / Fold change /veh A4GNT (11735810_at) / RFU PRB3 (11715151_x_at) / Fold change /veh PRB3 (11715151_x_at) / RFU TUBB4B (11761932_at) / Fold change /veh TUBB4B (11761932_at) / RFU CAPN14 (11732068_a_at) / Fold change /veh CAPN14 (11732068_a_at) / RFU TMCC2 (11721928_a_at) / Fold change /veh TMCC2 (11721928_a_at) / RFU IRGQ (11745062_a_at) / Fold change /veh IRGQ (11745062_a_at) / RFU FAM174B (11720279_a_at) / Fold change /veh FAM174B (11720279_a_at) / RFU TMPRSS4 (11748680_a_at) / Fold change /veh TMPRSS4 (11748680_a_at) / RFU FAM212B (11763350_a_at) / Fold change /veh FAM212B (11763350_a_at) / RFU PLEKHG5 (11743358_a_at) / Fold change /veh PLEKHG5 (11743358_a_at) / RFU ZSCAN30 (11745921_a_at) / Fold change /veh ZSCAN30 (11745921_a_at) / RFU CMKLR1 (11741424_a_at) / Fold change /veh CMKLR1 (11741424_a_at) / RFU LOC101060620 /// MAPK8IP1 (11723275_at) / Fold change /veh LOC101060620 /// MAPK8IP1 (11723275_at) / RFU SPTSSB (11747773_x_at) / Fold change /veh SPTSSB (11747773_x_at) / RFU PRSS12 (11739890_at) / Fold change /veh PRSS12 (11739890_at) / RFU BIN1 (11741810_x_at) / Fold change /veh BIN1 (11741810_x_at) / RFU WNT11 (11732464_a_at) / Fold change /veh WNT11 (11732464_a_at) / RFU C10orf10 (11716521_a_at) / Fold change /veh C10orf10 (11716521_a_at) / RFU C5orf56 (11738089_at) / Fold change /veh C5orf56 (11738089_at) / RFU CYB561 (11721691_x_at) / Fold change /veh CYB561 (11721691_x_at) / RFU ANKRD19P (11752326_a_at) / Fold change /veh ANKRD19P (11752326_a_at) / RFU OR2T12 /// OR2T33 /// OR2T8 (11738714_s_at) / Fold change /veh OR2T12 /// OR2T33 /// OR2T8 (11738714_s_at) / RFU VCAN (11748164_a_at) / Fold change /veh VCAN (11748164_a_at) / RFU JSRP1 (11732532_at) / Fold change /veh JSRP1 (11732532_at) / RFU KRTAP10-11 (11738290_x_at) / Fold change /veh KRTAP10-11 (11738290_x_at) / RFU MYO3A (11730013_a_at) / Fold change /veh MYO3A (11730013_a_at) / RFU EBF3 (11725865_a_at) / Fold change /veh EBF3 (11725865_a_at) / RFU CAMK2N1 (11719241_x_at) / Fold change /veh CAMK2N1 (11719241_x_at) / RFU C5orf56 (11738088_a_at) / Fold change /veh C5orf56 (11738088_a_at) / RFU OLFML3 (11715873_a_at) / Fold change /veh OLFML3 (11715873_a_at) / RFU LOC100653217 /// NTM (11731650_a_at) / Fold change /veh LOC100653217 /// NTM (11731650_a_at) / RFU MAPK11 (11762145_a_at) / Fold change /veh MAPK11 (11762145_a_at) / RFU FIZ1 (11724087_x_at) / Fold change /veh FIZ1 (11724087_x_at) / RFU OASL (11726364_x_at) / Fold change /veh OASL (11726364_x_at) / RFU SOX15 (11748057_x_at) / Fold change /veh SOX15 (11748057_x_at) / RFU CD79A (11719716_a_at) / Fold change /veh CD79A (11719716_a_at) / RFU HIST1H1D (11736915_at) / Fold change /veh HIST1H1D (11736915_at) / RFU CASKIN2 (11723855_a_at) / Fold change /veh CASKIN2 (11723855_a_at) / RFU LOC730098 (11760151_x_at) / Fold change /veh LOC730098 (11760151_x_at) / RFU OR4N2 (11742367_at) / Fold change /veh OR4N2 (11742367_at) / RFU PRRT2 (11749266_a_at) / Fold change /veh PRRT2 (11749266_a_at) / RFU SNX32 (11753110_a_at) / Fold change /veh SNX32 (11753110_a_at) / RFU CDHR5 (11726645_a_at) / Fold change /veh CDHR5 (11726645_a_at) / RFU RCAN1 (11760418_a_at) / Fold change /veh RCAN1 (11760418_a_at) / RFU FAM167A (11723789_a_at) / Fold change /veh FAM167A (11723789_a_at) / RFU FAM26E (11764081_at) / Fold change /veh FAM26E (11764081_at) / RFU ISYNA1 (11749810_s_at) / Fold change /veh ISYNA1 (11749810_s_at) / RFU ACY1 (11761880_at) / Fold change /veh ACY1 (11761880_at) / RFU 11764098_at / Fold change /veh 11764098_at / RFU SAMD14 (11745864_x_at) / Fold change /veh SAMD14 (11745864_x_at) / RFU NPB (11741838_a_at) / Fold change /veh NPB (11741838_a_at) / RFU TMPRSS6 (11731388_a_at) / Fold change /veh TMPRSS6 (11731388_a_at) / RFU KRTAP10-2 (11738614_at) / Fold change /veh KRTAP10-2 (11738614_at) / RFU ARHGAP8 /// PRR5-ARHGAP8 (11727945_x_at) / Fold change /veh ARHGAP8 /// PRR5-ARHGAP8 (11727945_x_at) / RFU KRTAP5-7 /// NADSYN1 (11734609_at) / Fold change /veh KRTAP5-7 /// NADSYN1 (11734609_at) / RFU RASL12 (11751679_a_at) / Fold change /veh RASL12 (11751679_a_at) / RFU CDKN2B (11736163_a_at) / Fold change /veh CDKN2B (11736163_a_at) / RFU PRF1 (11729649_at) / Fold change /veh PRF1 (11729649_at) / RFU, ZNF638 /// ZNF638-IT1 / Fold change vs veh, ZNF638 /// ZNF638-IT1 / RFU, PANK3 / Fold change vs veh, PANK3 / RFU, SH3YL1 / Fold change vs veh, SH3YL1 / RFU, ZEB2 / Fold change vs veh, ZEB2 / RFU, NRIP1 / Fold change vs veh, NRIP1 / RFU, PTTG1IP / Fold change vs veh, PTTG1IP / RFU, CAPN2 / Fold change vs veh, CAPN2 / RFU, MED14 / Fold change vs veh, MED14 / RFU, SNORA58 / Fold change vs veh, SNORA58 / RFU, C1orf63 / Fold change vs veh, C1orf63 / RFU, LRRFIP1 / Fold change vs veh, LRRFIP1 / RFU, NDUFAF7 / Fold change vs veh, NDUFAF7 / RFU, SLC12A2 / Fold change vs veh, SLC12A2 / RFU, IBTK / Fold change vs veh, IBTK / RFU, ESF1 / Fold change vs veh, ESF1 / Fold change vs veh, TMEM50B / RFU, TAOK1 / Fold change vs veh, TAOK1 / RFU, ACBD3 / Fold change vs veh, ACBD3 / RFU, TMA16 / Fold change vs veh, TMA16 / RFU, RWDD3 / Fold change vs veh, RWDD3 / RFU, BCAT1 / Fold change vs veh, BCAT1 / RFU, EDEM3 / Fold change vs veh, EDEM3 / RFU, TMEM33 / Fold change vs veh, TMEM33 / RFU, WDR75 / Fold change vs veh, WDR75 / RFU, AHCTF1 / Fold change vs veh, AHCTF1 / RFU, TFRC / Fold change vs veh, TFRC / RFU, ZDHHC17 / Fold change vs veh, ZDHHC17 / RFU, NOM1 / Fold change vs veh, NOM1 / RFU, ARL8B / Fold change vs veh, ARL8B / RFU, ZBTB11 / Fold change vs veh, ZBTB11 / RFU, TAMM41 / Fold change vs veh, TAMM41 / RFU, KIAA1704 /// LOC100996395 / Fold change vs veh, KIAA1704 /// LOC100996395 / RFU, ING1 / Fold change vs veh, ING1 / RFU, TRMT61B / Fold change vs veh, TRMT61B / RFU, FUBP3 / Fold change vs veh, FUBP3 / RFU, TP53 / Fold change vs veh, TP53 / RFU, TNKS2 / Fold change vs veh, TNKS2 / RFU, ZFP14 / Fold change vs veh, ZFP14 / RFU, ACTR2 / Fold change vs veh, ACTR2 / RFU, PPP3R1 / Fold change vs veh, PPP3R1 / RFU, PIK3R1 / Fold change vs veh, PIK3R1 / RFU, HNRNPA1 / Fold change vs veh, HNRNPA1 / RFU, RNF170 / Fold change vs veh, RNF170 / RFU, ZNF28 / Fold change vs veh, ZNF28 / RFU, RNGTT / Fold change vs veh, RNGTT / RFU, OGT / Fold change vs veh, OGT / RFU, BRD1 / Fold change vs veh, BRD1 / RFU, MARS / Fold change vs veh, MARS / RFU, ZNF655 / Fold change vs veh, ZNF655 / RFU, FAHD1 / Fold change vs veh, FAHD1 / RFU, BDP1 / Fold change vs veh, BDP1 / RFU, LRRCC1 / Fold change vs veh, LRRCC1 / RFU, ARID1A / Fold change vs veh, ARID1A / RFU, ZNF146 / Fold change vs veh, ZNF146 / RFU, ZNF330 / Fold change vs veh, ZNF330 / RFU, GPN3 / Fold change vs veh, GPN3 / RFU, C9orf123 / Fold change vs veh, C9orf123 / RFU, N4BP2L2 / Fold change vs veh, N4BP2L2 / RFU, ARFIP1 / Fold change vs veh, ARFIP1 / RFU, FAM179B / Fold change vs veh, FAM179B / RFU, BCL10 / Fold change vs veh, BCL10 / RFU, UHRF1BP1L / Fold change vs veh, UHRF1BP1L / RFU, BET1 / Fold change vs veh, BET1 / RFU, CNOT2 / Fold change vs veh, CNOT2 / RFU, ZNF268 / Fold change vs veh, ZNF268 / Fold change vs veh, ZNF507 / RFU, DGCR2 / Fold change vs veh, DGCR2 / RFU, WDSUB1 / Fold change vs veh, WDSUB1 / Fold change vs veh, HSP90B1 /// MIR3652 / RFU, ADSS / Fold change vs veh, ADSS / RFU, GK / Fold change vs veh, GK / RFU, ZNF148 / Fold change vs veh, ZNF148 / RFU, TAF9 / Fold change vs veh, TAF9 / RFU, SLC1A5 / Fold change vs veh, SLC1A5 / RFU, SLMO2 / Fold change vs veh, SLMO2 / RFU, ABCC4 / Fold change vs veh, ABCC4 / RFU, LOC101060439 /// RAP1B / Fold change vs veh, LOC101060439 /// RAP1B / RFU, RFX7 / Fold change vs veh, RFX7 / RFU, GTPBP10 / Fold change vs veh, GTPBP10 / RFU, CNEP1R1 / Fold change vs veh, CNEP1R1 / RFU, BIVM-ERCC5 /// ERCC5 / Fold change vs veh, BIVM-ERCC5 /// ERCC5 / RFU, ILF3 / Fold change vs veh, ILF3 / RFU 11762660_at / Fold change /veh 11762660_at / RFU VCAN (11757783_s_at) / Fold change /veh VCAN (11757783_s_at) / RFU DDX43 (11728927_at) / Fold change /veh DDX43 (11728927_at) / RFU KRT8 (11758188_x_at) / Fold change /veh KRT8 (11758188_x_at) / RFU NKD1 (11759106_at) / Fold change /veh NKD1 (11759106_at) / RFU SRD5A1 (11742802_a_at) / Fold change /veh SRD5A1 (11742802_a_at) / RFU TPSAB1 /// TPSB2 (11721975_s_at) / Fold change /veh TPSAB1 /// TPSB2 (11721975_s_at) / RFU GSTM3 (11746129_a_at) / Fold change /veh GSTM3 (11746129_a_at) / RFU IL23R (11737362_x_at) / Fold change /veh IL23R (11737362_x_at) / RFU TMEM51 (11727254_a_at) / Fold change /veh TMEM51 (11727254_a_at) / RFU PIWIL2 (11732686_x_at) / Fold change /veh PIWIL2 (11732686_x_at) / RFU ORM1 (11744905_x_at) / Fold change /veh ORM1 (11744905_x_at) / RFU CCDC152 (11743942_at) / Fold change /veh CCDC152 (11743942_at) / RFU ECM1 (11717891_a_at) / Fold change /veh ECM1 (11717891_a_at) / RFU IL23R (11748794_a_at) / Fold change /veh IL23R (11748794_a_at) / RFU TNFAIP8L3 (11732012_x_at) / Fold change /veh TNFAIP8L3 (11732012_x_at) / RFU MBOAT4 (11741988_at) / Fold change /veh MBOAT4 (11741988_at) / RFU 11764193_at / Fold change /veh 11764193_at / RFU TMEM53 (11763286_at) / Fold change /veh TMEM53 (11763286_at) / RFU MAGEB2 (11727129_at) / Fold change /veh MAGEB2 (11727129_at) / RFU TMEM200A (11744735_a_at) / Fold change /veh TMEM200A (11744735_a_at) / RFU CCDC152 (11751479_a_at) / Fold change /veh CCDC152 (11751479_a_at) / RFU FAM211A (11726209_a_at) / Fold change /veh FAM211A (11726209_a_at) / RFU RGS16 (11746705_a_at) / Fold change /veh RGS16 (11746705_a_at) / RFU VCAN (11755009_s_at) / Fold change /veh VCAN (11755009_s_at) / RFU RHOB (11743442_s_at) / Fold change /veh RHOB (11743442_s_at) / RFU RGS16 (11720943_a_at) / Fold change /veh RGS16 (11720943_a_at) / RFU RGS16 (11720944_at) / Fold change /veh RGS16 (11720944_at) / RFU, VPS4B / Fold change vs veh, VPS4B / RFU, CREB1 / Fold change vs veh, CREB1 / RFU, DNAJC13 / Fold change vs veh, DNAJC13 / RFU, GNAQ / Fold change vs veh, GNAQ / RFU, CDK5R1 / Fold change vs veh, CDK5R1 / RFU, ZRANB3 / Fold change vs veh, ZRANB3 / RFU, CUL4A / Fold change vs veh, CUL4A / RFU, CCNY / Fold change vs veh, CCNY / RFU, UFL1 / Fold change vs veh, UFL1 / RFU, COG3 / Fold change vs veh, COG3 / RFU, DIAPH2 / Fold change vs veh, DIAPH2 / RFU, SKA2 / Fold change vs veh, SKA2 / RFU, AFF3 / Fold change vs veh, AFF3 / RFU, LMF1 / Fold change vs veh, LMF1 / RFU, IPO11 / Fold change vs veh, IPO11 / RFU, DFFB / Fold change vs veh, DFFB / RFU, FOXP1 / Fold change vs veh, FOXP1 / RFU, CARD8 / Fold change vs veh, CARD8 / RFU, STRN3 / Fold change vs veh, STRN3 / RFU, ADK / Fold change vs veh, ADK / RFU, RASSF2 / Fold change vs veh, RASSF2 / RFU, WIPF1 / Fold change vs veh, WIPF1 / RFU, LARP1B / Fold change vs veh, LARP1B / RFU, RASA1 / Fold change vs veh, RASA1 / RFU, RB1 / Fold change vs veh, RB1 / RFU, PPFIA1 / Fold change vs veh, PPFIA1 / RFU, MAT2A / Fold change vs veh, MAT2A / RFU, CCT5 / Fold change vs veh, CCT5 / RFU, WDR92 / Fold change vs veh, WDR92 / RFU, CUX1 / Fold change vs veh, CUX1 / RFU, TTC7A / Fold change vs veh, TTC7A / RFU, TMEM135 / Fold change vs veh, TMEM135 / RFU, DEPTOR / Fold change vs veh, DEPTOR / RFU, CPM / Fold change vs veh, CPM / RFU, DNAJB6 / Fold change vs veh, DNAJB6 / RFU, CACNA2D3 / Fold change vs veh, CACNA2D3 / RFU, DTX4 / Fold change vs veh, DTX4 / RFU, TFCP2 / Fold change vs veh, TFCP2 / RFU, GMCL1 /// GMCL1P1 / Fold change vs veh, GMCL1 /// GMCL1P1 / RFU, AEBP2 / Fold change vs veh, AEBP2 / RFU, SNHG1 /// SNORD22 /// SNORD25 /// SNORD26 /// SNORD27 /// SNORD28 /// SNORD29 /// SNORD31 / Fold change vs veh, SNHG1 /// SNORD22 /// SNORD25 /// SNORD26 /// SNORD27 /// SNORD28 /// SNORD29 /// SNORD31 / Fold change (Aza/veh), C12orf56 (ProbeSet 11735607_a_at) / Fold change (ACY-1035/veh), C12orf56 (ProbeSet 11735607_a_at) / Fold change (Aza/veh), FGFR1OP (ProbeSet 11751329_s_at) / Fold change (ACY-1035/veh), FGFR1OP (ProbeSet 11751329_s_at) / Fold change (Aza/veh), VPS36 (ProbeSet 11739960_a_at) / Fold change (ACY-1035/veh), VPS36 (ProbeSet 11739960_a_at) / RFU SYPL1 (11715823_x_at) / Fold change /veh SYPL1 (11715823_x_at) / RFU IGFBP7 (11715501_s_at) / Fold change /veh IGFBP7 (11715501_s_at) / RFU REEP3 (11722064_at) / Fold change /veh REEP3 (11722064_at) / RFU IGLL1 (11728026_x_at) / Fold change /veh IGLL1 (11728026_x_at): dose or concentration left out as unconfirmed
Conditions: ProbeSet 11760938_a_at; LIST D

Nc1ccc(-c2cccs2)cc1NC(=O)c1ccc2c(c1)cc(C1CC1)n2CCN1CCOCC1 [ACY-1035]
RFU, MAT2A: 163.17 RFU
